What was measured:
Assay in all cases: Nanosyn kinase profiling
Type in all cases: biochemical
Settings in all cases: read-out: Percentage inhibition; for inhibition at 0.1 µM: 0.1 µM inhibitor; for inhibition at 1 µM: 1 µM inhibitor
AURKC = target: T1, AURKC (Homo sapiens, UniProt Q9UQB9)
T1 construct: purchased Nanosyn (enzymatic panel); SGC in-house recombinant human kinases (DSF panel); Invitrogen (ALK1-6)
T1 sequence (Q9UQB9 1-309): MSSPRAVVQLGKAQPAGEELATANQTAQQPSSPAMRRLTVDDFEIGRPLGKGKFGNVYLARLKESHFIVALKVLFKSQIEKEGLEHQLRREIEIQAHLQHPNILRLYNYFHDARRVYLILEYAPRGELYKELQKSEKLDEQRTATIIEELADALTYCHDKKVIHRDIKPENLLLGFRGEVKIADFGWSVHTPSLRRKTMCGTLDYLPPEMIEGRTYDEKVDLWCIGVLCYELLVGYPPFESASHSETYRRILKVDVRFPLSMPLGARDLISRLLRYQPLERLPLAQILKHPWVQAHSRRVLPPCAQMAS
Method in brief: (§1)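 Percent inhibition of each kinase was measured with the inhibitor at 0.1 µM and at 1 µM, as part of a 200-kinase human selectivity panel.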

CDK3/cycE = target: T2, CDK3/cycE (Homo sapiens, UniProt Q00526)
T2 construct: purchased Nanosyn (enzymatic panel); SGC in-house recombinant human kinases (DSF panel); Invitrogen (ALK1-6)
Method in brief: as §1

DYRK2 = target: T3, DYRK2 (Homo sapiens, UniProt Q92630)
T3 construct: purchased Nanosyn (enzymatic panel); SGC in-house recombinant human kinases (DSF panel); Invitrogen (ALK1-6)
T3 sequence (Q92630 1-601): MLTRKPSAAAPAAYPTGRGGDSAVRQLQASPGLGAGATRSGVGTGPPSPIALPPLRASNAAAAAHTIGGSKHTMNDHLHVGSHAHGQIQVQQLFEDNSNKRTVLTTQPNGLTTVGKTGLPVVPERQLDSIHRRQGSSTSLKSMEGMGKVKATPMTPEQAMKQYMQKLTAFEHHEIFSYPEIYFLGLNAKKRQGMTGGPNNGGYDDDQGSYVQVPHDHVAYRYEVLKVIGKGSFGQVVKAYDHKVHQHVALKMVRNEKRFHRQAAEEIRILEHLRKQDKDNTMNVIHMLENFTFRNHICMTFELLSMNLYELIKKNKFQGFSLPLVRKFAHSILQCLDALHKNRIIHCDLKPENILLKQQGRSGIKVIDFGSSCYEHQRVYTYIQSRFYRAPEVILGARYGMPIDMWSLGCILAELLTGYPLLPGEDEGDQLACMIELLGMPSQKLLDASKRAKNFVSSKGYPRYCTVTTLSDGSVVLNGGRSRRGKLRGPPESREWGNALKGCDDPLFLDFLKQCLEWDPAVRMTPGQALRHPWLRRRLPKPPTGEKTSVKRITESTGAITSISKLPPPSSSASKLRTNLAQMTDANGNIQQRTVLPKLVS
Method in brief: as §1

FLT1 = target: T4, FLT1 (Homo sapiens, UniProt P17948)
T4 construct: purchased Nanosyn (enzymatic panel); SGC in-house recombinant human kinases (DSF panel); Invitrogen (ALK1-6)
Method in brief: as §1

ITK = target: T5, ITK (Homo sapiens, UniProt Q08881)
T5 construct: purchased Nanosyn (enzymatic panel); SGC in-house recombinant human kinases (DSF panel); Invitrogen (ALK1-6)
T5 sequence (Q08881 1-620): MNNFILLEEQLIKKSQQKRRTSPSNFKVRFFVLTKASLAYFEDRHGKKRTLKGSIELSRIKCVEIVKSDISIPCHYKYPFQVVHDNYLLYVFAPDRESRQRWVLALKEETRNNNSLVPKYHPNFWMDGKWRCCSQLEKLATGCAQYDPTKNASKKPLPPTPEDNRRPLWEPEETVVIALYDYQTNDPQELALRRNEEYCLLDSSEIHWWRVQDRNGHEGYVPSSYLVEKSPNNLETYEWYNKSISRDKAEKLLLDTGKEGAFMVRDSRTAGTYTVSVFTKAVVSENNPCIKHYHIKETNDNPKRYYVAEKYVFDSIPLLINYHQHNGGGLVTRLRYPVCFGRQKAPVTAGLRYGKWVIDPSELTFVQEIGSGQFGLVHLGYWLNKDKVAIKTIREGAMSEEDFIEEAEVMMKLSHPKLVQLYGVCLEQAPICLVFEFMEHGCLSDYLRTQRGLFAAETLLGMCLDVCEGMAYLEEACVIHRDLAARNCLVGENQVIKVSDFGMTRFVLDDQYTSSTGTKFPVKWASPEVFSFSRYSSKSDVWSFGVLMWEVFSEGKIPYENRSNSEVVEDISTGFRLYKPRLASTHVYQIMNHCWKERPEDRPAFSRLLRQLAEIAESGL
Method in brief: as §1

MSK2 = target: T6, MSK2 (Homo sapiens, UniProt O75676)
T6 construct: purchased Nanosyn (enzymatic panel); SGC in-house recombinant human kinases (DSF panel); Invitrogen (ALK1-6)
Method in brief: as §1

PAK2 = target: T7, PAK2 (Homo sapiens, UniProt Q13177)
T7 construct: purchased Nanosyn (enzymatic panel); SGC in-house recombinant human kinases (DSF panel); Invitrogen (ALK1-6)
Method in brief: as §1

PASK = target: T8, PASK (Homo sapiens, UniProt Q96RG2)
T8 construct: purchased Nanosyn (enzymatic panel); SGC in-house recombinant human kinases (DSF panel); Invitrogen (ALK1-6)
Method in brief: as §1

PI3-K-α = target: T9, PI3-K-α (Homo sapiens, UniProt P42336)
T9 construct: purchased Nanosyn (enzymatic panel); SGC in-house recombinant human kinases (DSF panel); Invitrogen (ALK1-6)
Method in brief: as §1

PKCθ = target: T10, PKCθ (Homo sapiens, UniProt Q04759)
T10 construct: purchased Nanosyn (enzymatic panel); SGC in-house recombinant human kinases (DSF panel); Invitrogen (ALK1-6)
Method in brief: as §1

PYK2 = target: T11, PYK2 (Homo sapiens, UniProt Q14289)
T11 construct: purchased Nanosyn (enzymatic panel); SGC in-house recombinant human kinases (DSF panel); Invitrogen (ALK1-6)
Method in brief: as §1

TRKB = target: T12, TRKB (Homo sapiens, UniProt Q16620)
T12 construct: purchased Nanosyn (enzymatic panel); SGC in-house recombinant human kinases (DSF panel); Invitrogen (ALK1-6)
Method in brief: as §1

YES = target: T13, YES (Homo sapiens, UniProt P07947)
T13 construct: purchased Nanosyn (enzymatic panel); SGC in-house recombinant human kinases (DSF panel); Invitrogen (ALK1-6)
Method in brief: as §1

cRAF = target: T14, cRAF (Homo sapiens, UniProt P04049)
T14 construct: purchased Nanosyn (enzymatic panel); SGC in-house recombinant human kinases (DSF panel); Invitrogen (ALK1-6)
Method in brief: as §1

T4 sequence (P17948 27-1338): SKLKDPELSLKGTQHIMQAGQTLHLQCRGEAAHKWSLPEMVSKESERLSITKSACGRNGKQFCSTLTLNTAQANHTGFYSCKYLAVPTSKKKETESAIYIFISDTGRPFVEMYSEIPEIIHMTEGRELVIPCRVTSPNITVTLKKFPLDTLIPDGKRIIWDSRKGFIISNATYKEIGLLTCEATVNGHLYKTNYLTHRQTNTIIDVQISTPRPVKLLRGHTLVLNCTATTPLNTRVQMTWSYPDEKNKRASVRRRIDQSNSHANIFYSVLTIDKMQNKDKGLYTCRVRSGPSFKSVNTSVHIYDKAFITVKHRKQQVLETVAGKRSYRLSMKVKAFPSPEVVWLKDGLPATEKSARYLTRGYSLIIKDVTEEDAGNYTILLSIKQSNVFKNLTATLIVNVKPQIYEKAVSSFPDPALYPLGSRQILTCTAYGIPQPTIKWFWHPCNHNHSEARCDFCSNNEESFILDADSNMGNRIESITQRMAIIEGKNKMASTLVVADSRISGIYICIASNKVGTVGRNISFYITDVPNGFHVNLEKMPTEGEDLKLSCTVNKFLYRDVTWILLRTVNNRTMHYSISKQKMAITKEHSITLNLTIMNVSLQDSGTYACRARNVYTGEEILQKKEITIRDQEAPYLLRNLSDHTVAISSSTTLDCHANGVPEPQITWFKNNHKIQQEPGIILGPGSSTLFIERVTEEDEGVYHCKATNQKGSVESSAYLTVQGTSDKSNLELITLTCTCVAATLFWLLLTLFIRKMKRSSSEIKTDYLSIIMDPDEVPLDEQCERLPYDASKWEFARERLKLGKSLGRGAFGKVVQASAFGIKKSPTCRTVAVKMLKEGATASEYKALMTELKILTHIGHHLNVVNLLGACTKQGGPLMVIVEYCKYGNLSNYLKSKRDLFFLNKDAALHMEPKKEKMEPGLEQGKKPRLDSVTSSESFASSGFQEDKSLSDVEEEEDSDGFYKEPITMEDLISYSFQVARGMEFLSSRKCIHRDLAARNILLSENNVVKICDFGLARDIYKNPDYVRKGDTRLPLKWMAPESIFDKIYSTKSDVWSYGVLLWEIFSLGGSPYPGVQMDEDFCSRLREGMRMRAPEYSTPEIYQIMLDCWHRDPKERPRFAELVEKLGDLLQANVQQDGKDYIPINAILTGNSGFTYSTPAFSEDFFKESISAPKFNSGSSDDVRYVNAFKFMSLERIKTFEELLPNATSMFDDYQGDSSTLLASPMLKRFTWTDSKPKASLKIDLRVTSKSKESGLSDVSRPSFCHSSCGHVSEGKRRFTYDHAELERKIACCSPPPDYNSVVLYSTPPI
T7 sequence (Q13177 whole entry): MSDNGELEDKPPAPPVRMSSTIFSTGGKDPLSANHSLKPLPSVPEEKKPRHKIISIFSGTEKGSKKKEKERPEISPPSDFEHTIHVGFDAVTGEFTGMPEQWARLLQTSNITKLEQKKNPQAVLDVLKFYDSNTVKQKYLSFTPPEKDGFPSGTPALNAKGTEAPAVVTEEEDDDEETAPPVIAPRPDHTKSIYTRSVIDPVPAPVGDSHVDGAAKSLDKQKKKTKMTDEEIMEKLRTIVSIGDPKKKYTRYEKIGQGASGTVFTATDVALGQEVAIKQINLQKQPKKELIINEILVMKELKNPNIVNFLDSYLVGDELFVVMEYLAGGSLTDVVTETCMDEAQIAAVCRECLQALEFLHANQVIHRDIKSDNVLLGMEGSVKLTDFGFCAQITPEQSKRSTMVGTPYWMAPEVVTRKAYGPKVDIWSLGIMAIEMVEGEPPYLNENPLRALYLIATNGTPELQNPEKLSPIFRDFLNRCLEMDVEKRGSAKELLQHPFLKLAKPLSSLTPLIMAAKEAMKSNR
T14 sequence (P04049 whole entry): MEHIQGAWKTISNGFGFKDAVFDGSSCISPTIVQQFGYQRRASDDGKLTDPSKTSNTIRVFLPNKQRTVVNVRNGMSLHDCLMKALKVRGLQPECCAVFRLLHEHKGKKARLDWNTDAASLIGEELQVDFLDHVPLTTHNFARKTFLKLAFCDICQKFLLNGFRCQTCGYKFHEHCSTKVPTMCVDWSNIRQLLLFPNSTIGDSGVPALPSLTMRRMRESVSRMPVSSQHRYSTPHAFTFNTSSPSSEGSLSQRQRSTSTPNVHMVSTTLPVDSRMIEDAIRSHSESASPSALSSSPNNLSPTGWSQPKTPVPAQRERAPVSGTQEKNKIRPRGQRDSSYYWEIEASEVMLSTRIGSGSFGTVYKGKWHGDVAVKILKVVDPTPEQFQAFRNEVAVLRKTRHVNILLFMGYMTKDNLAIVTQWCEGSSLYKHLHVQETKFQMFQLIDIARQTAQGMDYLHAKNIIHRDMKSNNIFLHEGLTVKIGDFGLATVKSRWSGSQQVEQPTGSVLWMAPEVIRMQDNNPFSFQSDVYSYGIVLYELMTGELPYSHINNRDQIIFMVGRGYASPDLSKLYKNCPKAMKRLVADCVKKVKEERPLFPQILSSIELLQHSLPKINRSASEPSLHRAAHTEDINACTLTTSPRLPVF
T11 sequence (Q14289 whole entry): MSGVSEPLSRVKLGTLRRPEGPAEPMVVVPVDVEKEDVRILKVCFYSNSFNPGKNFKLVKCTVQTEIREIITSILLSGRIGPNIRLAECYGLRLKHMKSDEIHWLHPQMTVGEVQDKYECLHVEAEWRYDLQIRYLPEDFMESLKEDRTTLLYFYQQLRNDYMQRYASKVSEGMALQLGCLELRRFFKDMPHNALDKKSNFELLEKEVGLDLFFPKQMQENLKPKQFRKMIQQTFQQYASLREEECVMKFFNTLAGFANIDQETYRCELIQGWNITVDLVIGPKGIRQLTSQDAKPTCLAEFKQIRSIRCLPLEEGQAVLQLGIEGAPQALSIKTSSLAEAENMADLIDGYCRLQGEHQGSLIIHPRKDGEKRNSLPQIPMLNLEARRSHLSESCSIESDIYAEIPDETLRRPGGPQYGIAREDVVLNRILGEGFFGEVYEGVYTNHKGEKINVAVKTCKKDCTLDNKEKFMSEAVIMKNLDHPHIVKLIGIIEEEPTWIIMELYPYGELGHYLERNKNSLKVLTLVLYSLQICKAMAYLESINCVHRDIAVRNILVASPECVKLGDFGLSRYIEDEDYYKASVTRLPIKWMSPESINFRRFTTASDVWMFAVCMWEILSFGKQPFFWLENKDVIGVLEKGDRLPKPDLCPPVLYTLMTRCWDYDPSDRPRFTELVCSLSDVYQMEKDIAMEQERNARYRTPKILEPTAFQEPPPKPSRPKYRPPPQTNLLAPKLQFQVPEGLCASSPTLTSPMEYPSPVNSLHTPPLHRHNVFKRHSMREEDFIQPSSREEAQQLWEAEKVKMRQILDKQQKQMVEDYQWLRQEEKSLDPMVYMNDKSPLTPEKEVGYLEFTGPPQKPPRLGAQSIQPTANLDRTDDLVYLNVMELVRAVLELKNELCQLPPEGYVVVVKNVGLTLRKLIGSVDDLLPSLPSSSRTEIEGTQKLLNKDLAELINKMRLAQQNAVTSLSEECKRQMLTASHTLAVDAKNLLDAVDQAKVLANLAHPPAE
T6 sequence (O75676 whole entry): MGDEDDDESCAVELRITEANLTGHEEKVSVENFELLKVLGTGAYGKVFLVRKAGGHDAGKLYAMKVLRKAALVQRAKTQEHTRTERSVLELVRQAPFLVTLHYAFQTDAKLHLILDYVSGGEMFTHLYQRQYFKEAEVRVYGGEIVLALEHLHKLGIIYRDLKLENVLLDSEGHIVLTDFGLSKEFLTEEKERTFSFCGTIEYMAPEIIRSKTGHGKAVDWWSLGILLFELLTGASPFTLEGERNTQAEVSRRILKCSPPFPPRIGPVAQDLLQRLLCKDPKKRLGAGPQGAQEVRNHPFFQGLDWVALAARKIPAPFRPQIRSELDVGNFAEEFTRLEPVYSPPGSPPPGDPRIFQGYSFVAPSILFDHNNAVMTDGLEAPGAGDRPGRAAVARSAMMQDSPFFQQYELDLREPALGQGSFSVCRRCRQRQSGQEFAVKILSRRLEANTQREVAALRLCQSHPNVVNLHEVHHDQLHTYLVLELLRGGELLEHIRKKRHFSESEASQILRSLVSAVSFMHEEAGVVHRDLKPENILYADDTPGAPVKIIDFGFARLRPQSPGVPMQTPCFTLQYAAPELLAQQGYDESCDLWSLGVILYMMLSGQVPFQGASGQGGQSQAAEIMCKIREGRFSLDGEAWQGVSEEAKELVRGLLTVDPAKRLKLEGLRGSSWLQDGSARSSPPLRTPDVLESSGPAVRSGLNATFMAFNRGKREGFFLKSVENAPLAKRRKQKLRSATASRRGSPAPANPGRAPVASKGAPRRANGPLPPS
T12 sequence (Q16620 32-822): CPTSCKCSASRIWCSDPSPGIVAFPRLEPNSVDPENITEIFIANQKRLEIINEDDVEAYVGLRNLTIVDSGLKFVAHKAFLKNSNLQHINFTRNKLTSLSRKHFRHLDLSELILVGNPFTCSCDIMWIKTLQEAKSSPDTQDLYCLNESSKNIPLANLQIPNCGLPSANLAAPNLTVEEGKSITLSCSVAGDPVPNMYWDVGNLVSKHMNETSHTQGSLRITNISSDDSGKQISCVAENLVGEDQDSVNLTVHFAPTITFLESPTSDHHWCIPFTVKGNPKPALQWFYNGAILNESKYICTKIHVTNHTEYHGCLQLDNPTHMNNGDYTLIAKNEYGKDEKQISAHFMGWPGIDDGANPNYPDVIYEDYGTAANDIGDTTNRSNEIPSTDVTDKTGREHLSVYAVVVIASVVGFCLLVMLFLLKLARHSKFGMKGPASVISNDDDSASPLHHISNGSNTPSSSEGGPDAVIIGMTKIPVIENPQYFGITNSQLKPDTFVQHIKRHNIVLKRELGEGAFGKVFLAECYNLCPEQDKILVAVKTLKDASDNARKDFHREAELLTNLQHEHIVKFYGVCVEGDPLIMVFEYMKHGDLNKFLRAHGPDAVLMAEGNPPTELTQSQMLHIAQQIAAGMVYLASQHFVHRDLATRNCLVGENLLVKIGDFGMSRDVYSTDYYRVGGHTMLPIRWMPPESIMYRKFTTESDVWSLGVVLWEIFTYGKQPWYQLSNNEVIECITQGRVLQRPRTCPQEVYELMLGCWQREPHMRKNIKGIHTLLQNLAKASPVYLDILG

| Compound | inhibition at 0.1 µM (AURKC) [%] | inhibition at 1 µM (AURKC) [%] | inhibition at 0.1 µM (CDK3/cycE) [%] | inhibition at 1 µM (CDK3/cycE) [%] | inhibition at 0.1 µM (DYRK2) [%] | inhibition at 1 µM (DYRK2) [%] | inhibition at 0.1 µM (FLT1) [%] | inhibition at 1 µM (FLT1) [%] | inhibition at 0.1 µM (ITK) [%] | inhibition at 1 µM (ITK) [%] | inhibition at 0.1 µM (MSK2) [%] | inhibition at 1 µM (MSK2) [%] | inhibition at 0.1 µM (PAK2) [%] | inhibition at 1 µM (PAK2) [%] | inhibition at 0.1 µM (PASK) [%] | inhibition at 1 µM (PASK) [%] | inhibition at 0.1 µM (PI3-K-α) [%] | inhibition at 1 µM (PI3-K-α) [%] | inhibition at 0.1 µM (PKCθ) [%] | inhibition at 1 µM (PKCθ) [%] | also measured |
| --- | --- | --- | --- | --- | --- | --- | --- | --- | --- | --- | --- | --- | --- | --- | --- | --- | --- | --- | --- | --- | --- |
| COc1cc(-c2cc(-c3cccc(O)c3)cnc2N)cc(OC)c1OC [K02288, 3-[6-amino-5-(3,4,5-trimethoxy-phenyl)-pyridin-3-yl]-phenol] | -1 | 3.2 | 1.6 | -91 | -1 | -3 | 0 | -2 | 0 | 0 | -1 | 1 | -1 | -1 | 1.1 | 0.6 | 2.6 | 2 | 0 | 0.1 | inhibition at 0.1 µM (PYK2): -1%; inhibition at 1 µM (PYK2): 0%; inhibition at 0.1 µM (TRKB): 1.8%; inhibition at 1 µM (TRKB): 3.9%; inhibition at 0.1 µM (YES): 4.9%; inhibition at 1 µM (YES): 34%; inhibition at 0.1 µM (cRAF): -5%; inhibition at 1 µM (cRAF): -8% |
| c1ccc2c(-c3cnn4cc(-c5ccc(N6CCNCC6)cc5)cnc34)ccnc2c1 [LDN-193189] | 4.2 | 25 | 1.6 | 7 | 2.3 | 0.2 | 0 | 17 | 0.9 | 3.6 | 0.9 | 0.8 | 0 | 0 | 1.9 | 1.4 | 2.1 | 1.5 | 1.4 | 1.3 | inhibition at 0.1 µM (PYK2): 4.6%; inhibition at 1 µM (PYK2): 9%; inhibition at 0.1 µM (TRKB): 0.8%; inhibition at 1 µM (TRKB): 3%; inhibition at 0.1 µM (YES): 12%; inhibition at 1 µM (YES): 50%; inhibition at 0.1 µM (cRAF): 0.6%; inhibition at 1 µM (cRAF): 0.1% |
